Here are results for three compounds from article PMC10861852, “Loss of activation by GABA in vertebrate delta ionotropic glutamate receptors” (Proceedings of the National Academy of Sciences of the …, 2024).

Experiment [1] addresses T1, AcaGluD (Acanthaster planci, UniProt A0A8B7XXR5).
T1 sequence (A0A8B7XXR5 24-958): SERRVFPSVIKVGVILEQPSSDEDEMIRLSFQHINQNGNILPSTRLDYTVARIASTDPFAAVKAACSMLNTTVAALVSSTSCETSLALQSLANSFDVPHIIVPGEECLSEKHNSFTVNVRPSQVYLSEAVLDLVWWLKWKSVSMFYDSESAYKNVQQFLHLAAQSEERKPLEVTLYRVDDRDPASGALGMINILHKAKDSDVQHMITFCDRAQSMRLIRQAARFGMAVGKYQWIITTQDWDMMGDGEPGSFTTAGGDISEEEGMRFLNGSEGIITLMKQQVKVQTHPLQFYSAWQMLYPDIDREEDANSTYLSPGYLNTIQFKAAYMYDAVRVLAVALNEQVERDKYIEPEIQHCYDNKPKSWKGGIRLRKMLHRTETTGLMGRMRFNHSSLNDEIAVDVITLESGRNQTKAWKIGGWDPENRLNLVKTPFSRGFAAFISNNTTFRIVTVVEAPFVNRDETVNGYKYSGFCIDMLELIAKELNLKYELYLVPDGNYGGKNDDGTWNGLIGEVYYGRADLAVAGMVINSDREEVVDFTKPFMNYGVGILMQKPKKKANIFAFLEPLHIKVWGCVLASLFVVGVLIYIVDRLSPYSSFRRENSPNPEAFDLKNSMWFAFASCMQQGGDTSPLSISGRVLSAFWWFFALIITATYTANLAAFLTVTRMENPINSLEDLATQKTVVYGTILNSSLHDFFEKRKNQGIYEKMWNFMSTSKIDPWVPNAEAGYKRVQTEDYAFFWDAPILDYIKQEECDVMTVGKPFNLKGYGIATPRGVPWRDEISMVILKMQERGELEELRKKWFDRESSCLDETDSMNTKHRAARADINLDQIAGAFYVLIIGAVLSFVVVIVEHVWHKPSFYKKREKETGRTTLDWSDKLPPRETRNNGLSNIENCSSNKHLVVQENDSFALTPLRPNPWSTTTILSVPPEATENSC
In words: Two-electrode voltage clamp, ligand-gated currents in oocytes. It counts as cell-based. On the technique in general: In two-electrode clamp one electrode senses voltage and the other passes current.

Experiment [2] addresses T2, RatGluD2^Lc^-9x (Rattus norvegicus, UniProt Q63226, A654T/A686S/D753Q/K694R/N720P/N763K/P806D/Q786M/R787V/Y613F).
T2 construct: expressed in transfected cells; host or cells: Xenopus laevis oocytes injected with mRNA
In words: Two-electrode voltage clamp, responses to ligands in mutant-expressing oocytes. It counts as cell-based. Conditions: ligands 30 mM; receptor inactive at rest.

The target of experiment [3] is T3, RatGluD2^Lc^-10x (Rattus norvegicus, UniProt Q63226, A654T/A686S/D753Q/K694R/N720P/N763K/P806D/Q786M/R787V/S544G/Y613F).
T3 construct: expressed in transfected cells; host or cells: Xenopus laevis oocytes injected with mRNA
T3 sequence (Q63226 24-1007 S544G/Y613F/A654T/A686S/K694R/N720P/D753Q/N763K/Q786M/R787V/P806D): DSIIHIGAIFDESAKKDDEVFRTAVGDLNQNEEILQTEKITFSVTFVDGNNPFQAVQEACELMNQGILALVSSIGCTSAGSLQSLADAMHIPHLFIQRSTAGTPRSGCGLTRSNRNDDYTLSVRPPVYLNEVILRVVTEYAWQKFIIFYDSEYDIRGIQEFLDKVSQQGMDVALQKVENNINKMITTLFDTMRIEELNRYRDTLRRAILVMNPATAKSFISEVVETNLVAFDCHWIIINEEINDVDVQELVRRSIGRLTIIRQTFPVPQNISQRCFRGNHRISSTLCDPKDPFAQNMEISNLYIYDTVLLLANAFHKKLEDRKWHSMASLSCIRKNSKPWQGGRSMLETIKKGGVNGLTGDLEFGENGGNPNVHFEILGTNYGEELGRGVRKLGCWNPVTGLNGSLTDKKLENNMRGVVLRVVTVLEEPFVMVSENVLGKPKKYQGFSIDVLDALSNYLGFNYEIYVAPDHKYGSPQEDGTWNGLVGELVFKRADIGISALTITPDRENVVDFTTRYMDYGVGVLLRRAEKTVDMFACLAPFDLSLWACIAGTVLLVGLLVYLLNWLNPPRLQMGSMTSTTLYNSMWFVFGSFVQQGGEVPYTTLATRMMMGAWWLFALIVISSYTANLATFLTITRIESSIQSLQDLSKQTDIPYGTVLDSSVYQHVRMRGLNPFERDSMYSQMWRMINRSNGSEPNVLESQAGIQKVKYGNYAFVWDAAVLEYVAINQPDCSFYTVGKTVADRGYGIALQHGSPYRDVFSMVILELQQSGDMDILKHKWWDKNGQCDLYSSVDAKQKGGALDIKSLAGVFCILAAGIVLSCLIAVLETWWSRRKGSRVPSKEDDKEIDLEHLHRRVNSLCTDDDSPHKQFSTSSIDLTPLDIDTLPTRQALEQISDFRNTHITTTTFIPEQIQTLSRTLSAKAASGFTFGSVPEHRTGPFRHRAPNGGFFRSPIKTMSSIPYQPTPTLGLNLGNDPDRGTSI
Described as above. In kind it is cell-based. The conditions noted are these: ligands 30 mM.

The test system of experiment [4] is AcaGluD^Rat^NTDlink. In words: Two-electrode voltage clamp, ligand-gated currents in chimera-expressing oocytes. Conditions: relative ligand-gated current amplitude, n = 3.
Description: (§1) To answer this, we measured ligand-gated currents in two chimeric AcaGluD constructs in which the NTD was replaced with that of RatGluD2: one retaining the NTD-LBD linker of AcaGluD, “AcaGluD^Rat^NTD”; and the other with the NTD-LBD linker of RatGluD2, “AcaGluD^Rat^NTDlink” (Fig. 4 A and B and SI Appendix, Supporting text).
The test system of experiment [5] is AcaGluD^Rat^NTD. The experiment is described as above. The conditions noted are these: relative ligand-gated current amplitude, n = 3.
Description: as §1
Experiment [6] addresses T4, RatGluD1^AC (Rattus norvegicus, UniProt Q62640, A654C).
T4 construct: expressed in transfected cells; host or cells: Xenopus laevis oocytes injected with mRNA
Description: Two-electrode voltage clamp, inhibition of constitutive current in oocytes. In kind it is cell-based. Conditions: A654C mutant receptor, n = 10.

Experiment [7] has as its system DioGluD. Description: Two-electrode voltage clamp, ligand-gated currents in oocytes. Conditions: wild-type. In kind it is cell-based, Diopisthoporus longitubus.
Experiment [8] relates to Q772D mutant AcaGluD. In words: Two-electrode voltage clamp, ligand-gated currents in mutant-expressing oocytes.
Description: (§2) As the long CTD is implicated little in channel gating and more in expression and trafficking of iGluRs ([3]), we excluded it from this analysis. […] (Two of the mutants incorporated substitutions of two adjacent residues for efficiency.)
For experiment [9], the system named is K782N mutant AcaGluD. The experiment is described as above.
Description: as §2
Experiment [10] concerns M805Q mutant AcaGluD. Described as above.
Description: as §2
Experiment [11] concerns V806R mutant AcaGluD. Described as above.
Description: as §2

In general, EC50 refers to the concentration needed to bring the measured effect to its halfway point.

T2 sequence (Q63226 24-1007 Y613F/A654T/A686S/K694R/N720P/D753Q/N763K/Q786M/R787V/P806D): as the sequence (Q63226 24-1007 S544G/Y613F/A654T/A686S/K694R/N720P/D753Q/N763K/Q786M/R787V/P806D) above, with G521S counted along it
T4 sequence (Q62640 21-1009 A654C): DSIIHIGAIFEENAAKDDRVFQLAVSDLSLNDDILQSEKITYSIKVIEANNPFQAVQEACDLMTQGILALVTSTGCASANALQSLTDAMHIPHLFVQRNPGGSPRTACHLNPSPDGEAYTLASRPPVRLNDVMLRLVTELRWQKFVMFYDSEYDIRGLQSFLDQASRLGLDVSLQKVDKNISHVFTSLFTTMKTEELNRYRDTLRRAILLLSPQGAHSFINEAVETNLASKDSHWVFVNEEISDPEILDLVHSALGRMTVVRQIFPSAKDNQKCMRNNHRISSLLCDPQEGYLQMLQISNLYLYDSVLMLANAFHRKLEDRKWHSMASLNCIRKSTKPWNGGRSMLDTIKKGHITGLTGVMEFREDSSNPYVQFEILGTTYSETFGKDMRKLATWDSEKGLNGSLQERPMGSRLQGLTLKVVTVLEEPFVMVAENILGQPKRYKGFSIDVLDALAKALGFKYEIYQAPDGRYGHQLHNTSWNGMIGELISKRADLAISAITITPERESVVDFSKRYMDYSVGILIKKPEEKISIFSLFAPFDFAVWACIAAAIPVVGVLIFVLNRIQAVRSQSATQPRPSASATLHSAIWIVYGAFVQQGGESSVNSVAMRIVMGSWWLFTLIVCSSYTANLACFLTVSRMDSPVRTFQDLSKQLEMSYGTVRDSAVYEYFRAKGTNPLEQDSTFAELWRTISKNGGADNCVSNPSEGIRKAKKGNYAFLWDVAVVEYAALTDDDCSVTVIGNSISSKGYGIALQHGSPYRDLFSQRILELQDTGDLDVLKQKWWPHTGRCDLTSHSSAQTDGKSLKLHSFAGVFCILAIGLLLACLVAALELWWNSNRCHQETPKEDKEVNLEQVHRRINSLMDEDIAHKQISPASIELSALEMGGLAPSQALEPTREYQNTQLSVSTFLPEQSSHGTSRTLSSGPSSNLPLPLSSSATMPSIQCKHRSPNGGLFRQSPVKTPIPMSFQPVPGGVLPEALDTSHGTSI

Turning to `NCC(=O)O` [glycine], the EC50 is 2000 ± 100 µM in experiment [1] (0 Ca2+, n = 4) and 2000 ± 100 µM in experiment [1] (ligand-gated current, 1.8 mM Ca2+ (regular bath solution)). Further, the “maximum ligand-gated current amplitude” value in [1] (in the presence of 1.8 mM Ca2+) is given as 0.33 ± 0.01 µA; in experiment [1] (nominally Ca2+-free solutions), 0.08 ± 0.01 µA. Besides, the entries for the “current response to ligand” value in [2] and in experiment [3] were “conducted inward currents” and “showed inward currents”, respectively.
For the compound `N[C@H](CO)C(=O)O` [D-serine], the relative efficacy in experiment [1] (WT, relative ligand-gated current amplitude, n = 7) is 12 ± 3%; in experiment [4], 20 ± 3%; in experiment [5] it was 5 ± 1%. Further, the “current response to ligand” value in experiment [3] is “showed inward currents”.
`NCCCC(=O)O` [GABA, γ-aminobutyric acid]: the “inactivation of constitutive current relative to D-serine” value in experiment [6] worked out at 86 ± 5%. Further, the EC50 stood at 5 ± 0.6 µM in experiment [1] (0 Ca2+, n = 5) and 13 ± 3 µM in [1] (ligand-gated current, 1.8 mM Ca2+ (regular bath solution), n = 5). Moreover, the “maximum GABA-gated current amplitude” value in experiment [1] (WT, mutant comparison (Fig. 5B), n = 4) is reported as 8.2 ± 1.1 μA; in experiment [8], “less than 1 μA”; in experiment [9], “less than 1 μA”; in [10], “less than 1 μA”; in experiment [11], “less than 1 μA”. Also, the “maximum ligand-gated current amplitude” value in experiment [1] (in the presence of 1.8 mM Ca2+) was determined as 6.0 ± 1.0 µA; in [1] (nominally Ca2+-free solutions) it was 0.42 ± 0.13 µA. Further, the ligand-elicited currents result in experiment [7] is “the only ligand that elicited currents”.
